Test results reported in patent publication US20220010258A1, “DEVICE THAT CAN SERVE AS A HEMATO-ENCEPHALITIC BARRIER MODEL” (priority 2017, published 2022).

Legend:
[1] = known ability; cited from earlier work
[2] = tested on: P-glycoprotein; experiment: Functionality of the P-glycoprotein: passage of rhodamine 123 with or without Zosuquidar, primary murine devices; format: in vitro ADME, mouse
Description: This functionality test is carried out with rhodamine 123, because it is known that this molecule as a substrate for the P-glycoprotein is expelled by the P-glycoprotein into the luminal compartment, which thus limits its passage through the device. The culture media are replenished: 1 mL in the abluminal compartment and 250 μL in the luminal compartment either containing or not containing the Zosuquidar inhibitor of P-glycoprotein P at 5 μM (Dantzig et al. 1996). The devices are incubated for 2 hrs in the incubator. Then, 250 μL of medium containing 2 μM rhodamine 123 with or without 5 μM Zosuquidar are added into the luminal compartment and incubated for 1 hr in the incubator. […] The reading of the fluorescence intensity is done on the same apparatus as for the permeability test (described above). The λex of the rhodamine is 500 nm and the λem is 524 nm.
Indeed it is known that rhodamine 123 as a substrate for glycoprotein P is expelled by the glycoprotein P into the luminal compartment, which limits the passage thereof through the device. Zosuquidar is an inhibitor of P-glycoprotein, therefore its use should limit the efflux of rhodamine 123 into the luminal compartment.
As in Example 4, the passage of rhodamine 123 in the presence or absence of Zosuquidar was studied.

[3] = tested on: P-gp glycoprotein; experiment: Functionality of P-glycoprotein in the commercially available device (Rhodamine 123 with or without Zosuquidar); format: in vitro ADME, rat; details: commercially available model
Description: Here again, the functionality of the commercially available model was evaluated by studying the passage of Rhodamine 123 in the presence or absence of the specific inhibitor of the P-gp glycoprotein, Zosuquidar.

[4] = tested on: P-gp efflux pump; experiment: Functionality of P-glycoprotein on murine devices with immortalised cell lines

Compound: O=C1CN=C(c2ccccn2)c2cc(Br)ccc2N1 [BROMO, Bromazepam]
- Passage through the HEB [1]: +

Compound: NCCc1ccc(O)c(O)c1 [DA, Dopamine]
- Passage through the HEB [1]: −

Compound: Clc1ccc(C(c2ccccc2Cl)C(Cl)Cl)cc1 (centres unmarked) [MITO, Mitotane]
- Passage through the HEB [1]: −

Compound: OC[C@H]1O[C@@](CO)(O[C@H]2O[C@H](CO)[C@@H](O)[C@H](O)[C@H]2O)[C@@H](O)[C@@H]1O [SUC, Sucrose]
- Passage through the HEB [1]: +

Compound: O[C@@H](COc1cccc2ncccc12)CN1CCN([C@@H]2c3ccccc3[C@@H]3[C@H](c4ccccc42)C3(F)F)CC1 [Zosuquidar]
- inhibition of the efflux (of rhodamine 123) by the specific P-glycoprotein inhibitor ([2]; 5 μM Zosuquidar, device WT): 57.3%
- effect on P-gp functionality ([2]; 24- and 96-well format devices): inhibited
- effect of Zosuquidar on Rhodamine 123 passage [3]: no effect
- Passage through the HEB [1]: −
- effect of the specific Glycoprotein P inhibitor ([4]; all the formats): does not show any effect

Compound: rhodamine 123
- passage of Rhodamine123 to the luminal side after addition into the abluminal compartment ([2]; 24- and 96-well format devices): comparable to cell-free HEBs
- passage of Rhodamine123 to the abluminal side ([2]; 24- and 96-well format devices, added luminal): passes very little on to the abluminal side
- decrease of the passage of rhodamine 123 to the abluminal compartment as compared to the device without cells ([2]; device WT, 1 hr incubation): 72.6%
- efflux of Rhodamine123 ([3]; regardless of the side where it is deposited): 97%
- limitation of the passage of Rhodamine 123 on the abluminal side ([4]; 12-, 24-, and 96 well plate formats): more than 60%
